Test system: mouse plasma stability, LC-MS/MS, 48 h
Assay: qHTS Assay to Find Inhibitors of T. brucei phosphofructokinase: Mouse Plasma Stability Profiling
Conditions: at 2 µM; hits give high values

- percent remaining: 100%
SMILES: O=C(Cc1ccc(Cl)c(Cl)c1)Nc1ccc(S(=O)(=O)Nc2ccon2)cc1

— PubChem BioAssay AID624143 (National Center for Advancing Translational Sciences (NCATS), 2012)
